Laboratory results: patent US20240217966A1, “PHARMACEUTICAL COMPOSITION CONTAINING GLP-1 RECEPTOR AGONIST HAVING FUSED RING” (Shionogi & Co., Ltd., priority 2021, published 2024)
Read-outs that look alike come from different tables or passages of the source.

Target: T1, Human GLP-1 receptor (Homo sapiens, UniProt P43220)
T1 construct: expressed in transfected cells
Assay: Measurement of GLP-1 receptor agonist activity (cAMP assay)
Assay type: cell-based
Method in brief: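 hGLP-1R/CHO-K1 cells in HBSS with 0.1% BSA, 20 mM HEPES, 0.1 mM IBMX and 0.2 mM RO20-1724 exposed to compound plus forskolin (400 μM stock) for 1 h at 37 °C. Intracellular cAMP read by HTRF (cAMP-d2/anti-cAMP cryptate, 1 h at room temperature).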

[1] = CHO-K1, maximum effect, cAMP increase in GLP-1 R/CHO-K1 cells, 2 nM human GLP-1 (7-36) = 100%, DMSO only = 0%, read-out: Emax
[2] = cAMP increase in GLP-1 R/CHO-K1 cells, 2 nM human GLP-1 (7-36) = 100%, DMSO only = 0%
[3] = CHO-K1, hGLP-1R/CHO-K1 cells, cAMP, 100% = human GLP-1 (7-36) at 2 nM, 0% = DMSO only, read-out: Emax(%)
[4] = hGLP-1R/CHO-K1 cells, cAMP increase, 37° C. 1 hour

T1 sequence (P43220 24-463): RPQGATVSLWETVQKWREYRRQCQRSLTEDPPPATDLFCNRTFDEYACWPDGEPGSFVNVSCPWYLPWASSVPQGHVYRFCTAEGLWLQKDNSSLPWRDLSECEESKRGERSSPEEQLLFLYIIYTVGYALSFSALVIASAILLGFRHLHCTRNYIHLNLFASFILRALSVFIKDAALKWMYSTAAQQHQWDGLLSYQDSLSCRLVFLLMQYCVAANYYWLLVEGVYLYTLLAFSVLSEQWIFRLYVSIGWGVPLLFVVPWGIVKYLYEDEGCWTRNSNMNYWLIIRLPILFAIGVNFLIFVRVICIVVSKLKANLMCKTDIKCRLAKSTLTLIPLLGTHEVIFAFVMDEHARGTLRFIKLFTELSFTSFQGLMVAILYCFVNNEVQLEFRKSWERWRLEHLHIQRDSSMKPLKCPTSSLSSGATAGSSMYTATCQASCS

SMILES	Emax [1] [%]	EC50 [2] [nM]	Emax [3] [%]	EC50 [4] [nM]
Cc1ccc(COc2nc3c(cc2C(F)(F)F)CCN(Cc2nc4ccc(C(=O)O)cc4n2C[C@@H]2CCO2)C3)cc1 [Compound I-265]	100	3.18	–	–
C[C@H]1c2cc(OCc3ccc(F)cc3F)c(Cl)cc2CCN1Cc1nc2ccc(C(=O)O)c(F)c2n1C[C@@H]1CCO1 [Compound I-323]	101	1.7	–	–
Cc1ccc(COc2nc3c(cc2C(F)(F)F)CCN(Cc2nc4ccc(C(=O)O)c(F)c4n2C[C@@H]2CCO2)C3)cc1 [Compound I-295]	108	1.29	–	–
O=C(O)c1ccc2nc(CN3CCc4cc(C(F)(F)F)c(OCc5c(F)cc(Cl)cc5F)nc4C3)n(C[C@@H]3CCO3)c2c1F [Compound I-301]	117	–	–	–
C[C@H]1c2cc(OCc3c(F)cc(Cl)cc3F)c(Cl)cc2CCN1Cc1nc2ccc(C(=O)O)c(F)c2n1C[C@@H]1CCO1 [Compound I-329]	96.7	1.16	–	–
C[C@H]1c2nc(OCc3ccc(C#N)cc3F)c(C(F)(F)F)cc2CCN1Cc1nc2ccc(C(=O)O)cc2n1C[C@@H]1CCO1 [Compound I-258]	107	0.0911	–	–
C[C@H]1c2nc(OCc3ccc(OC(F)F)cc3F)c(C(F)(F)F)cc2CCN1Cc1nc2ccc(C(=O)O)c(F)c2n1C[C@@H]1CCO1 [Compound I-360]	115	0.104	–	–
Cc1cc(C(=O)O)cc2c1nc(CN1CCc3cc(C(F)(F)F)c(OCc4ccc(Cl)cc4F)cc3C1)n2C[C@@H]1CCO1 [Compound I-108]	–	–	108	8.33
O=C(O)c1ccc2nc(CN3CCc4cc(C(F)(F)F)c(OCc5ccc(Cl)cn5)nc4C3)n(C[C@@H]3CCO3)c2c1 [Compound I-263]	105	8.8	–	–
C[C@H]1c2nc(OCc3ccc(Cl)cc3)c(C(F)(F)F)cc2CCN1Cc1nc2ccc(C(=O)O)cc2n1C[C@@H]1CCO1 [Compound I-249]	145	0.13	–	–
C[C@H]1c2nc(OCc3ccc(OC(F)F)cc3F)c(C(F)(F)F)cc2CCN1Cc1nc2c(F)cc(C(=O)O)cc2n1C[C@@H]1CCO1 [Compound I-370]	109	0.143	–	–
C[C@H]1c2cc(OCc3ccc(Cl)cn3)c(Cl)cc2CCN1Cc1nc2ccc(C(=O)O)c(F)c2n1C[C@@H]1CCO1 [Compound I-320]	90.3	1.63	–	–
O=C(O)c1ccc2nc(CN3CCc4cc(C(F)(F)F)c(OCc5ccc(Cl)cc5F)cc4C3=O)n(C[C@@H]3CCO3)c2c1 [Compound I-030]	–	–	92.3	3.56
O=C(O)c1ccc2nc(CN3CCc4cc(C(F)(F)F)c(OCc5ccc(F)cc5Cl)cc4C3)n(C[C@@H]3CCO3)c2c1 [Compound I-097]	–	–	105	2.42
C[C@H]1c2cc(OCc3c(F)cc(F)cc3F)c(C(F)(F)F)cc2CCN1Cc1nc2ccc(C(=O)O)nc2n1C[C@@H]1CCO1 [Compound I-188]	–	–	90.3	1.79
C[C@H]1c2nc(OCc3ccc(Cl)cc3F)ccc2CCN1Cc1nc2ccc(C(=O)O)cc2n1C[C@@H]1CCO1 [Compound I-395]	89.7	0.618	–	–
C[C@H]1c2nc(OCc3ccc(Cl)cc3F)c(C(F)(F)F)cc2CCN1Cc1nc2c(F)cc(C(=O)O)cc2n1C[C@@H]1CCO1 [Compound I-273]	121	0.0301	–	–

SMILES	Emax [1] [%]	EC50 [2] [nM]	Emax [3] [%]	EC50 [4] [nM]
Cc1cc2c(cc1OCc1ccc(C(F)(F)F)cc1F)CN(Cc1nc3ccc(C(=O)O)cc3n1C[C@@H]1CCO1)CC2 [Compound I-020]	–	–	89	75.8
Cn1cc(COc2cc3c(cc2C(F)(F)F)CCN(Cc2nc4ccc(C(=O)O)cc4n2C[C@@H]2CCO2)C3)cn1 [Compound I-071]	–	–	114	63.9
COc1cc(C(=O)O)cc2c1nc(CN1CCc3cc(C(F)(F)F)c(OCc4ccc(OC(F)F)cc4F)nc3[C@@H]1C)n2C[C@@H]1CCO1 [Compound I-283]	118	0.0283	–	–
O=C(O)c1ccc2nc(CN3CCc4cc(C(F)(F)F)c(OCc5ccc(Cl)cc5Cl)nc4C3)n(C[C@@H]3CCO3)c2n1 [Compound I-304]	115	0.869	–	–
Cc1ccc(COc2cc3c(cc2C(F)(F)F)CCN(Cc2nc4ccc(C(=O)O)cc4n2C[C@@H]2CCO2)C3)cc1 [Compound I-085]	–	–	111	4.47
O=C(O)c1ccc2nc(CN3CCc4cc(C(F)(F)F)c(OCc5ccc(F)cc5F)nc4C3)n(C[C@@H]3CCO3)c2c1 [Compound I-268]	108	1.97	–	–
Cc1csc(COc2cc3c(cc2C(F)(F)F)CCN(Cc2nc4ccc(C(=O)O)cc4n2C[C@@H]2CCO2)C3)n1 [Compound I-137]	–	–	114	5.56
O=C(O)c1cc(OC(F)F)c2nc(CN3CCc4cc(C(F)(F)F)c(OCc5ccc(Cl)cc5F)cc4C3)n(C[C@@H]3CCO3)c2c1 [Compound I-120]	–	–	103	2.43
O=C(O)c1ccc2nc(CN3CCc4cc(C(F)(F)F)c(OCc5cc(F)c(Cl)cc5F)cc4C3)n(C[C@@H]3CCO3)c2c1 [Compound I-064]	–	–	102	5.74
Cc1cc2ccc(Cc3nc4ccc(C(=O)O)cc4n3C[C@@H]3CCO3)cc2nc1OCc1ccc(Cl)cc1F [Compound I-006]	–	–	86	–
COc1cc(C(=O)O)cc2c1nc(CN1CCc3cc(C(F)(F)F)c(OCc4ccc(Cl)cc4F)cc3C1)n2C[C@@H]1CCO1 [Compound I-119]	–	–	119	0.569
O=C(O)c1ccc2nc(CN3CCc4cc(C(F)(F)F)c(OCc5ccc(Cl)cc5F)cc4C3)n(C[C@H]3CCO3)c2c1 [Compound I-042]	–	–	95	73.8
C[C@H]1c2cc(OCc3cc(F)c(Cl)cc3F)c(Cl)cc2CCN1Cc1nc2ccc(C(=O)O)c(F)c2n1C[C@@H]1CCO1 [Compound I-326]	109	1.31	–	–
Cc1nc(COc2cc3c(cc2C(F)(F)F)CCN(Cc2nc4ccc(C(=O)O)cc4n2C[C@@H]2CCO2)C3)cs1 [Compound I-138]	–	–	94.3	68.8
Cc1csc(COc2cc3c(cc2C(F)(F)F)CCN(Cc2nc4ccc(C(=O)O)nc4n2C[C@@H]2CCO2)[C@H]3C)n1 [Compound I-177]	–	–	107	3.09
COc1cc(Cl)ccc1COc1nc2c(cc1C(F)(F)F)CCN(Cc1nc3c(OC)cc(C(=O)O)cc3n1C[C@@H]1CCO1)[C@H]2C [Compound I-376]	106	0.0152	–	–
C[C@H]1c2cc(OCc3cc(F)c(Cl)cc3F)c(Cl)cc2CCN1Cc1nc2c(F)cc(C(=O)O)cc2n1C[C@@H]1CCO1 [Compound I-338]	100	1.27	–	–

The remaining lines, values ahead:

Emax [1] [%]	EC50 [2] [nM]	Emax [3] [%]	EC50 [4] [nM]	SMILES
102	2.7	–	–	COc1ccc(COc2cc3c(cc2Cl)CCN(Cc2nc4c(F)cc(C(=O)O)cc4n2C[C@@H]2CCO2)[C@H]3C)cc1 [Compound I-331]
120	0.00739	–	–	COc1cc(C(=O)O)cc2c1nc(CN1CCc3cc(C(F)(F)F)c(OCc4ccccc4Cl)nc3[C@@H]1C)n2C[C@@H]1CCO1 [Compound I-281]
110	1.41	–	–	COc1ccc(COc2cc3c(cc2C(F)(F)F)CCN(Cc2nc4c(OC)cc(C(=O)O)cc4n2C[C@@H]2CCO2)[C@H]3C)cc1 [Compound I-224]
–	–	66	99.5	C[C@@H]1c2cc(OCc3ccc(Cl)cc3F)c(C(F)(F)F)cc2CCN1Cc1nc2ccc(C(=O)O)cc2n1C[C@@H]1CCO1 [Compound I-036]
102	0.378	–	–	COc1cc(C(=O)O)cc2c1nc(CN1CCc3cc(C(F)(F)F)c(OCc4ccc(C#N)cc4F)cc3[C@@H]1C)n2C[C@@H]1CCO1 [Compound I-235]
103	0.3	–	–	COc1cc(C(=O)O)cc2c1nc(CN1CCc3cc(C(F)(F)F)c(OCc4ccc(C)cc4)cc3[C@@H]1C)n2C[C@@H]1CCO1 [Compound I-227]
–	–	110	1.28	C[C@H]1c2cc(OCc3ccc(Cl)cc3)c(C(F)(F)F)cc2CCN1Cc1nc2ccc(C(=O)O)cc2n1C[C@@H]1CCO1 [Compound I-161]
–	–	102	0.707	C[C@H]1c2cc(OCc3ccc(Cl)cc3Cl)c(C(F)(F)F)cc2CCN1Cc1nc2ccc(C(=O)O)cc2n1C[C@@H]1CCO1 [Compound I-167]
112	0.0877	–	–	COc1cc(C(=O)O)cc2c1nc(CN1CCc3cc(C(F)(F)F)c(OCc4ccc(Cl)cc4)nc3C1)n2C[C@@H]1CCO1 [Compound I-386]
–	–	111	1.23	C[C@H]1c2cc(OCc3ccc(F)cc3F)c(C(F)(F)F)cc2CCN1Cc1nc2ccc(C(=O)O)cc2n1C[C@@H]1CCO1 [Compound I-166]
103	0.0814	–	–	COc1cc(C(=O)O)cc2c1nc(CN1CCc3cc(C(F)(F)F)c(OCc4ccc(C5CC5)cc4)nc3[C@@H]1C)n2C[C@@H]1CCO1 [Compound I-375]
97.7	1.29	–	–	COc1cc(C(=O)O)cc2c1nc(CN1CCc3cc(C(F)(F)F)c(OCc4ccc(OC(F)F)cc4F)cc3[C@@H]1C)n2C[C@@H]1CCO1 [Compound I-233]
130	0.00862	–	–	COc1cc(C(=O)O)cc2c1nc(CN1CCc3cc(C(F)(F)F)c(OCc4c(F)cc(F)cc4F)nc3[C@@H]1C)n2C[C@@H]1CCO1 [Compound I-285]
106	0.282	–	–	COc1cc(C(=O)O)cc2c1nc(CN1CCc3cc(C(F)(F)F)c(OCc4ccc(F)cc4F)cc3[C@@H]1C)n2C[C@@H]1CCO1 [Compound I-231]
106	0.429	–	–	COc1cc(C(=O)O)cc2c1nc(CN1CCc3cc(C(F)(F)F)c(OCc4ccc(F)cc4)cc3[C@@H]1C)n2C[C@@H]1CCO1 [Compound I-236]
